Measured values as given in patent US20020193425A1, “Cancer chemopreventative compounds and compositions and methods of treating cancers” (priority 2001, published 2002).

Legend:
[1] = test system: BV173; test: Cell cycle effects, DNA content by flow cytometry; type: cell-based; conditions: Brusatol (25 ng/ml), 24 h
Method: (§1) About 10^6 cells from each sample were collected and washed twice with ice-cold PBS, fixed in 70% ethanol, and stored at 4° C. until analysis. The cells were stained with PI (50 μg/ml), treated with DNase-free RNase (10 μg/ml), and subjected to DNA content analysis using an EPICS Coulter flow cytometer. At least 10,000 cells were counted for each sample. The percentage of apoptotic cells was calculated by measuring the area under the sub-diploid (DNA <2 N) peak in the plot of cell number against cellular DNA content.
(§2) Cells were treated with solvent or brusatol (25 ng/ml) for 24 h, fixed in ethanol and stained with PI for flow cytometric analysis as described under “Materials and methods”. At least 10,000 cells were counted. Results are presented as the mean of triplicate samples (±standard deviation). G1=Gap1, S=Synthesis, G2/M=Gap2+Mitosis, Ap=sub-G1 apoptotic peak.

[2] = test system: K562; test: Cell cycle effects, DNA content by flow cytometry; type: cell-based; conditions: Brusatol (25 ng/ml), 24 h
Method: as §1, §2

[3] = test system: Kasumi-1; test: Cell cycle effects, DNA content by flow cytometry; type: cell-based; conditions: Brusatol (25 ng/ml), 24 h
Method: as §1, §2

[4] = test system: NB4; test: Cell cycle effects, DNA content by flow cytometry; type: cell-based; conditions: Brusatol (25 ng/ml), 24 h
Method: as §1, §2

[5] = test system: RS4,11; test: Cell cycle effects, DNA content by flow cytometry; type: cell-based; conditions: Brusatol (25 ng/ml), 24 h
Method: as §1, §2

[6] = test system: Reh; test: Cell cycle effects, DNA content by flow cytometry; type: cell-based; conditions: Brusatol (25 ng/ml), 24 h
Method: as §1, §2

[7] = test system: SUPB13; test: Cell cycle effects, DNA content by flow cytometry; type: cell-based; conditions: Brusatol (25 ng/ml), 24 h
Method: as §1, §2

[8] = test system: U937; test: Cell cycle effects, DNA content by flow cytometry; type: cell-based; conditions: Brusatol (25 ng/ml), 24 h
Method: as §1, §2

[9] = test system: Daudi cells; test: Membrane markers of B-lymphocyte maturation by flow cytometry; type: cell-based; conditions: brusatol (10 ng/ml), control 92.5
Method: (§3) Cell lines were tested using a 4-day incubation protocol, unless otherwise specified.
(§4) 3) Determination of cell surface antigen by flow cytometry. Cells (10^6) were washed with PBS and then incubated for 30 min at room temperature with respective monoclonal antibodies, washed with 20 volumes of diluent (PBS with 0.1% sodium azide and 1% BSA), and resuspended in 0.5 ml of fresh diluent for evaluation. Necrotic cells were excluded from the analysis by propidium iodide (PI) staining. The following mAbs (Sigma, St. Louis, Mo.) were used to assess the maturation level of myeloid cell lines: antiCD15 (Leu M1), antiCD-11b (OKM1), antiCD14 and antiCD13. The following mAbs (Sigma, St. Louis, Mo.) were used to assess the maturation level of lymphocytic cell lines: antiCD20, antiHLA-DR and antikappa light chain.
Finally, various membrane markers of B-lymphocyte maturation (i.e., CD20, superficial light chain kappa and HLA-DR) in SUPB13, RS4;11, Reh, Daudi and DHL-6 were analyzed. Few changes were observed, but brusatol induced a small increase in CD20 with DHL-6 cells (197.5 control vs. 225.3 brusatol (5 ng/ml), specific mean fluorescence intensity), and a larger increase of HLA-DR in Daudi cells (92.5 control vs. 244.9 brusatol (10 ng/ml), specific mean fluorescence intensity).

[10] = test system: BV173; test: Membrane phenotype, cell surface antigen by flow cytometry; type: cell-based; conditions: 4-day protocol
Method: as §3, §4
(§5) Cells were induced to differentiate with the indicated concentrations of brusatol using a 4-day protocol and then analyzed for membrane markers of differentiation as described under “Materials and methods”. Results are expressed as the specific mean fluorescence intensity (ratio of antigen antibody flourescence over isotype antibody fluorescence), and represents the mean of two independent studies.

[11] = test system: K562 cells; test: as above; type: cell-based; conditions: Brusatol 25 ng/ml, 4-day protocol
Method: as §3, §4, §5

[12] = test system: Kasumi-1; test: as above; type: cell-based; conditions: 4-day protocol
Method: as §3, §4, §5

[13] = test system: NB4 cells; test: as above; type: cell-based; conditions: Brusatol 10 ng/ml, 4-day protocol
Method: as §3, §4, §5

[14] = test system: RS4;11 cells; test: as above; type: cell-based; conditions: Brusatol 25 ng/ml, 4-day protocol
Method: as §3, §4, §5

[15] = test system: U937 cells; test: as above; type: cell-based; conditions: Brusatol 12.5 ng/ml, 4-day protocol
Method: as §3, §4, §5

[16] = test system: K562; test: NBT-reduction differentiation assay, leukemic panel; type: cell-based; conditions: 4 days
Method: as §3
2) NBT/NSE/SE. Evaluation of NBT reduction was used to assess the ability of sample-treated cells to produce superoxide when challenged with TPA. A 1:1 (v/v) mixture of a cell suspension (10^6 cells) and TPA/NBT solution (2 mg/ml NBT and 1 μg/ml TPA in phosphate buffer saline (PBS)) was incubated for 1 h at 37° C. Then, cells were smeared on glass slides, and counterstained with 0.3% (w/v) safranin O in methanol. Positive cells reduce NBT yielding intracellular black-blue formazan deposits. NSE/SE are monocytic/granulocytic esterases that can be visualized by cytochemical staining using commercially available kits (α-Naphthyl Acetate Esterase and Naphthol As-D Chloroacetate Esterase kits, Sigma Chemical Co., St. Louis, Mo.). Positive-stained cells were quantified by microscopic examination of >200 cells. Results were expressed as a percentage of positive cells.
Concentration-dependent effect of brusatol on: (a) NBT-reduction (monocyte/granulocyte marker) of HL-60, K562, NB4, U937, and BV173 and (b) NSE expression (monocyte marker) in K562, Kasumi-1, NB4, and BV173 cells, respectively. Data points are the mean of duplicate samples.

[17] = test system: BV173; test: Cytotoxicity, viability by Trypan blue exclusion; conditions: four days
Method: HL-60, K562, U937, Reh and Daudi cells were obtained from the American Type Culture Collection (Rockville, Md.). Kasumi-1, NB4, BV173, SUPB13, and RS4;11 cells were provided by the Section of Hematology/Oncology, University of Illinois College of Medicine, Chicago, Ill. All cell lines were maintained in suspension culture using RPMI 1640 medium supplemented with 10% heat-inactivated fetal bovine serum, 100 units of penicillin/ml and 100 μg of streptomycin/ml at 37° C. in a humidified atmosphere of 5% CO2 in air. All cells were routinely tested for mycoplasma contamination.
Cellular viability was monitored by Trypan blue exclusion. Inhibition of [3H]thymidine incorporation into DNA was determined to assess the level of cell proliferation as well as DNA synthesis inhibition. […] The filters were counted using a Microbeta™ liquid scintillation counter (Wallac, Turku, Finland) with scintillation fluid. Finally, the percentage of [3H]thymidine incorporation per 10^6 cells was calculated by dividing the dpm of sample-treated cells by the dpm of DMSO-treated cells.
^aViability was determined by Trypan blue exclusion in duplicate samples. […] Results are expressed as median inhibitory cell concentrations of two independent experiments (±standard deviations).

For COC(=O)[C@@]12OC[C@]34[C@H]([C@@H](O)[C@@H]1O)[C@@]1(C)CC(=O)C(O)=C(C)[C@@H]1C[C@H]3OC(=O)[C@H](OC(=O)C=C(C)C)[C@@H]24 [compound 1, brusatol], the “Ap (sub-G1 apoptotic peak)” value [1] was “Ap = 15.6 ± 0.2”, the G1 [1] was “G1 = 57.0 ± 0.4” and the G2/M [1] was “G2/M = 7.1 ± 0.1”. For the same molecule, the S [1] was “S = 35.9 ± 0.6”, the G1 [2] was “G1 = 46.2 ± 0.6” and the G2/M [2] was “G2/M = 5.6 ± 0.4”. The S [2] was “S = 48.2 ± 0.3”, the G1 [3] was “G1 = 77.4 ± 1.8” and the G2/M [3] was “G2/M = 4.5 ± 0.2”. For the same molecule, the S [3] was “S = 18.1 ± 2.1”, the “Ap (sub-G1 apoptotic peak)” value [4] was “Ap = 37.2 ± 0.8” and the G1 [4] was “G1 = 45.3 ± 0.8”. The G2/M [4] was “G2/M = 7.3 ± 0.7”, the S [4] was “S = 47.4 ± 0.1” and the G1 [5] was “G1 = 50.9 ± 0.4”. For the same molecule, the G2/M [5] was “G2/M = 3.4 ± 0.1”, the S [5] was “S = 45.7 ± 0.2” and the G1 [6] was “G1 = 78.8 ± 1.2”. For the same molecule, the G2/M [6] was “G2/M= 3.2 ± 0.4”, the S [6] was “S = 18.0 ± 0.6” and the G1 [7] was “G1 = 61.9 ± 2.1”. The G2/M [7] was “G2/M = 8.7 ± 0.3”, the S [7] was “S = 29.4 ± 1.8” and the G1 [8] was “G1 = 45.4 ± 1.8”. The G2/M [8] was “G2/M = 8.0 ± 1.6”, the S [8] was “S = 46.6 ± 0.2” and the “HLA-DR, specific mean fluorescence intensity” value [9] was 244.9. For the same molecule, the “membrane markers of differentiation, change between control and treated cells” value [10] was “did not show any changes”, the “CD11b, specific mean fluorescence intensity” value [11] was 1.0 ± 0.1 and the “CD13, specific mean fluorescence intensity” value [11] was 1.4 ± 0.2. The “CD14, specific mean fluorescence intensity” value [11] was 1.0, the “CD15, specific mean fluorescence intensity” value [11] was 4.6 ± 1.1 and the “membrane markers of differentiation, change between control and treated cells” value [12] was “did not show any changes”. For the same molecule, the “CD11b, specific mean fluorescence intensity” value [13] was 1.2 ± 0.5, the “CD13, specific mean fluorescence intensity” value [13] was 156.1 ± 54.3 and the “CD14, specific mean fluorescence intensity” value [13] was 1.3. The “CD15, specific mean fluorescence intensity” value [13] was 18.5 ± 0.4, the “CD11b, specific mean fluorescence intensity” value [14] was 1.2 ± 0.1 and the “CD13, specific mean fluorescence intensity” value [14] was 1.3 ± 0.2. The “CD15, specific mean fluorescence intensity” value [14] was 151.9 ± 42.1, the “CD11b, specific mean fluorescence intensity” value [15] was 2.5 ± 0.2 and the “CD13, specific mean fluorescence intensity” value [15] was 55.7 ± 1.1. For the same molecule, the “CD14, specific mean fluorescence intensity” value [15] was 9.6, the “CD15, specific mean fluorescence intensity” value [15] was 28.5 ± 4.3 and the “NBT-reduction, peak induction” value [16] was 75%. For the same molecule, the “Cytotoxicity (IC50, ng/ml)” value ([17]; listed as Brusatol) was 5 ± 1.4 ng/mL and the “Cytotoxicity (IC50, ng/ml)” value ([17]; listed as brusatol) was “less than 25 ng/ml”.
